According to ChEMBL document CHEMBL4819135, “Design, synthesis and anti-HIV evaluation of novel 5-substituted diarylpyrimidine derivatives as potent HIV-1 NNRTIs” (Bioorg Med Chem, 2021):

Tests used:
[1] = test system: Human immunodeficiency virus 1; assay: Antiviral activity against HIV-1 IIIB harboring RT F227L/V106A mutant infected in human MT4 cells assessed as protection against virus-induced cytotoxicity incubated for 5 days by MTT assay; assay type: functional, organism-based; settings: Human immunodeficiency virus 1, IIIB, MT4, 120 h
[2] = test system: Human immunodeficiency virus 1; assay: Antiviral activity against HIV-1 IIIB harboring RT E138K mutant infected in human MT4 cells assessed as protection against virus-induced cytotoxicity incubated for 5 days by MTT assay; assay type: functional, organism-based; settings: Human immunodeficiency virus 1, IIIB, MT4, 120 h
[3] = test system: Human immunodeficiency virus 1; assay: Antiviral activity against HIV-1 IIIB harboring RT Y181C mutant infected in human MT4 cells assessed as protection against virus-induced cytotoxicity incubated for 5 days by MTT assay; assay type: functional, organism-based; settings: Human immunodeficiency virus 1, IIIB, MT4, 120 h
[4] = test system: Human immunodeficiency virus 1; assay: Antiviral activity against HIV-1 IIIB infected in human MT4 cells assessed as protection against virus-induced cytotoxicity after 5 days by MTT assay; assay type: functional, organism-based; settings: Human immunodeficiency virus 1, IIIB, MT4, 120 h
[5] = Antiviral activity against HIV-2 ROD infected in human MT4 cells assessed as protection against virus-induced cytotoxicity incubated for 5 days by MTT assay; assay type: functional, cell-based; settings: HIV-2, ISOLATE ROD, MT4, 120 h
[6] = test system: Human immunodeficiency virus 1; assay: Antiviral activity against HIV-1 IIIB harboring RT Y188L mutant infected in human MT4 cells assessed as protection against virus-induced cytotoxicity incubated for 5 days by MTT assay; assay type: functional, organism-based; settings: Human immunodeficiency virus 1, IIIB, MT4, 120 h
[7] = Cytotoxicity against human MT4 cells assessed as reduction in cell viability after 5 days by MTT assay; assay type: cell-based; settings: time 5 day
[8] = test system: Human immunodeficiency virus 1; assay: Antiviral activity against HIV-1 IIIB harboring RT K103N mutant infected in human MT4 cells assessed as protection against virus-induced cytotoxicity incubated for 5 days by MTT assay; assay type: functional, organism-based; settings: Human immunodeficiency virus 1, IIIB, MT4, 120 h
[9] = test system: Human immunodeficiency virus 1; assay: Antiviral activity against HIV-1 RES056 infected in human MT4 cells assessed as protection against virus-induced cytotoxicity incubated for 5 days by MTT assay; assay type: functional, organism-based; settings: Human immunodeficiency virus 1, RES056, MT4, 120 h
[10] = test system: Human immunodeficiency virus 1; assay: Antiviral activity against HIV-1 IIIB harboring RT L100I mutant infected in human MT4 cells assessed as protection against virus-induced cytotoxicity incubated for 5 days by MTT assay; assay type: functional, organism-based; settings: Human immunodeficiency virus 1, IIIB, MT4, 120 h
[11] = test system: Human immunodeficiency virus 1; assay: Potency index, ratio of Etravirine EC50 to test compound EC50 for antiviral activity against HIV-1 IIIB infected in human MT4 cells by MTT assay; assay type: functional
[12] = test system: Human immunodeficiency virus 1; assay: Potency index, ratio of Etravirine EC50 to test compound EC50 for antiviral activity against HIV-1 IIIB harboring RT E138K mutant infected in human MT4 cells by MTT assay; assay type: functional
[13] = test system: Human immunodeficiency virus 1; assay: Antiviral activity against HIV-1 IIIB; assay type: functional, organism-based; settings: Human immunodeficiency virus 1, IIIB
[14] = biological target: Human immunodeficiency virus type 1 reverse transcriptase (Human immunodeficiency virus 1, UniProt Q72547); assay: Inhibition of wild type HIV-1 reverse transcriptase assessed as reduction in biotin-dUTP incorporation in presence of template-primer incubated for 60 mins followed by transferring to streptavidin-coated plate and further incubation for 60 mins by ELISA

Compound | EC50 [1] | EC50 [2] | EC50 [3] | EC50 [4] | EC50 [5] | EC50 [6] | CC50 at 120 h [7] | EC50 [8] | EC50 [9] | EC50 [10] | Ratio EC50 [11] | Ratio EC50 [12] | EC50 [13] | IC50 [14]
Cc1cc(C#N)cc(C)c1Oc1nc(Nc2ccc(C#N)cc2)ncc1-c1ccc(-c2ccccc2)cc1 | 1220 nM | 112 nM | 361 nM | 20.5 nM | > 253000 nM | 1320 nM | > 253000 nM | 29.5 nM | 8520 nM | 195 nM |  |  |  | 
Cc1cc(C#N)cc(C)c1Oc1nc(Nc2ccc(C#N)cc2)ncc1-c1ccc(Cl)cc1 | 902 nM | 72.6 nM | 250 nM | 14.4 nM | > 72600 nM | 567 nM | 72600 nM | 19.5 nM | 5120 nM | 216 nM |  |  |  | 
Cc1cc(C#N)cc(C)c1Oc1nc(Nc2ccc(C#N)cc2)ncc1-c1cccnc1 | 112 nM | 7.1 nM | 23.5 nM | 2.5 nM | > 13500 nM | 20 nM | 13500 nM | 2.7 nM | 300 nM | 24.2 nM | 1.2 | 1.4 |  | 
Cc1cc(C#N)cc(C)c1Oc1nc(Nc2ccc(C#N)cc2)nc(N)c1Br [ETRAVIRINE] |  |  |  |  |  |  | > 4590 nM |  |  |  |  |  |  | 
Cc1cc(C#N)cc(C)c1Oc1nc(Nc2ccc(C#N)cc2)nc2ccsc12 |  |  |  |  |  |  |  |  |  |  |  |  | 1.6 nM | 
O=C1Nc2ccc(Cl)cc2[C@@](C#CC2CC2)(C(F)(F)F)O1 [EFAVIRENZ] |  |  |  |  |  |  | > 6340 nM |  | 273 nM | 30.8 nM |  |  |  | 
Cc1cc(C#N)cc(C)c1Oc1nc(Nc2ccc(C#N)cc2)ncc1-c1cccc2ccccc12 | 38400 nM | 5450 nM | 21700 nM | 934 nM | > 267000 nM | 10600 nM | > 267000 nM | 1820 nM | 218000 nM | 2670 nM |  |  |  | 
Cc1cc(C#N)cc(C)c1Oc1nc(Nc2ccc(C#N)cc2)ncc1-c1ccccc1 | 881 nM | 122 nM | 576 nM | 24.4 nM | > 31800 nM | 222 nM | 31800 nM | 63.5 nM | 9130 nM | 446 nM |  |  |  | 
Cc1cc(C#N)cc(C)c1Oc1nc(Nc2ccc(C#N)cc2)ncc1-c1ccc(N)cc1 | 44.1 nM | 10.5 nM | 41.6 nM | 3.5 nM | > 310 nM | 33.5 nM | 310 nM | 3.8 nM | > 306 nM | 20.5 nM |  |  |  | 
Cc1ccnc2c1NC(=O)c1cccnc1N2C1CC1 [NEVIRAPINE] | 4310 nM | 115 nM | 3670 nM | 133 nM |  | 5350 nM | > 15000 nM | 2320 nM | 10700 nM | 589 nM |  |  |  | 
Cc1cc(C#N)cc(C)c1Oc1nc(Nc2ccc(C#N)cc2)ncc1-c1ccc(C(F)(F)F)cc1 | 724 nM | 60.3 nM | 235 nM | 11.5 nM | > 35000 nM | 598 nM | 35000 nM | 25.4 nM | 5460 nM | 246 nM |  |  |  | 
Cc1cc(C#N)cc(C)c1Oc1nc(Nc2ccc(C#N)cc2)ncc1-c1cccs1 | 269 nM | 12.9 nM | 36 nM | 4.9 nM | > 6430 nM | 57.5 nM | 6430 nM | 4.8 nM | 1150 nM | 21.1 nM |  |  |  | 
COc1ccc(-c2cnc(Nc3ccc(C#N)cc3)nc2Oc2c(C)cc(C#N)cc2C)cc1 | 278 nM | 38.4 nM | 186 nM | 8 nM | > 279000 nM | 143 nM | > 279000 nM | 14.6 nM | 3770 nM | 164 nM |  |  |  | 
Cc1cc(C#N)cc(C)c1Oc1nc(Nc2ccc(C#N)cc2)ncc1-c1ccncc1 | 41.3 nM | 5.9 nM | 24.1 nM | 2.5 nM | > 28000 nM | 30.9 nM | 28000 nM | 4.2 nM | 718 nM | 28.3 nM | 1.2 | 1.4 |  | 570 nM
Cc1cc(C)cc(-c2cnc(Nc3ccc(C#N)cc3)nc2Oc2c(C)cc(C#N)cc2C)c1 | 1110 nM | 319 nM | 833 nM | 102 nM | > 38800 nM | 2230 nM | 39000 nM | 135 nM | > 38800 nM | 421 nM |  |  |  | 
Cc1ccc(-c2cnc(Nc3ccc(C#N)cc3)nc2Oc2c(C)cc(C#N)cc2C)cc1 | 707 nM | 57.2 nM | 347 nM | 11.7 nM | > 26100 nM | 267 nM | 26100 nM | 20.3 nM | > 10600 nM | 138 nM |  |  |  | 
Cc1cc(C#N)cc(C)c1Oc1nc(Nc2ccc(C#N)cc2)ncc1-c1ccc(F)cc1 | 526 nM | 18.5 nM | 113 nM | 6.2 nM | > 42700 nM | 102 nM | 42700 nM | 10.1 nM | 5000 nM | 159 nM |  |  |  | 
Cc1cc(C#N)cc(C)c1Oc1nc(Nc2ccc(C#N)cc2)ncc1-c1cncnc1 | 325 nM | 11.8 nM | 32.4 nM | 4.6 nM | > 298000 nM | 73.4 nM | > 298000 nM | 5.3 nM | 316 nM | 38.3 nM |  |  |  | 
Cc1cn([C@H]2C[C@H](N=[N+]=[N-])[C@@H](CO)O2)c(=O)[nH]c1=O [ZIDOVUDINE] |  |  |  |  |  |  | > 7480 nM |  | 20.1 nM |  |  |  |  | 
Cc1cc(C#N)cc(C)c1Oc1nc(Nc2ccc(C#N)cc2)ncc1-c1ccc2ccccc2c1 | 1200 nM | 76.9 nM | 356 nM | 16.8 nM | > 8460 nM | 849 nM | 8460 nM | 35.7 nM | > 8460 nM | 195 nM |  |  |  | 
Cc1cc(C#N)cc(C)c1Oc1nc(Nc2ccc(C#N)cc2)ncc1-c1ccsc1 | 64.8 nM | 10.7 nM | 57.1 nM | 4.1 nM | > 3920 nM | 41.8 nM | 3920 nM | 4.3 nM | 1440 nM | 53.4 nM |  |  |  | 
Cc1cc(C#N)cc(C)c1Oc1nc(Nc2ccc(C#N)cc2)ncc1-c1ccoc1 | 32.4 nM | 9.3 nM | 17.9 nM | 3.3 nM | > 4980 nM | 22.6 nM | 4980 nM | 4.4 nM | 395 nM | 19.1 nM |  |  |  | 
Cc1cc(C#N)cc(C)c1Oc1nc(Nc2ccc(C#N)cc2)ncc1-c1ccco1 | 75.3 nM | 9.3 nM | 30.4 nM | 3.6 nM | > 307000 nM | 37.4 nM | > 307000 nM | 4.7 nM | 1010 nM | 24.8 nM |  |  |  | 
